Results reported in PMC8968665, “Verteporfin is a substrate-selective γ-secretase inhibitor that binds the amyloid precursor protein transmembrane domain” (The Journal of Biological Chemistry, 2022).
“Also recorded” adds a separate entry of the source.

How the values were obtained:
[1] = target: T1, γ-secretase cleavage of Notch-1 TM/JM (Homo sapiens, UniProt P49768+Q92542+Q96BI3+Q9NZ42); test: γ-Secretase assay, Notch-1 TM/JM cleavage, NICD by anti-V1744 Western blot; format: biochemical
T1 construct: made in house; host or cells: Notch-1 TM/JM: E. coli BL21DE3 Star
T1 sequence (Q92542 34-709, other chains not shown): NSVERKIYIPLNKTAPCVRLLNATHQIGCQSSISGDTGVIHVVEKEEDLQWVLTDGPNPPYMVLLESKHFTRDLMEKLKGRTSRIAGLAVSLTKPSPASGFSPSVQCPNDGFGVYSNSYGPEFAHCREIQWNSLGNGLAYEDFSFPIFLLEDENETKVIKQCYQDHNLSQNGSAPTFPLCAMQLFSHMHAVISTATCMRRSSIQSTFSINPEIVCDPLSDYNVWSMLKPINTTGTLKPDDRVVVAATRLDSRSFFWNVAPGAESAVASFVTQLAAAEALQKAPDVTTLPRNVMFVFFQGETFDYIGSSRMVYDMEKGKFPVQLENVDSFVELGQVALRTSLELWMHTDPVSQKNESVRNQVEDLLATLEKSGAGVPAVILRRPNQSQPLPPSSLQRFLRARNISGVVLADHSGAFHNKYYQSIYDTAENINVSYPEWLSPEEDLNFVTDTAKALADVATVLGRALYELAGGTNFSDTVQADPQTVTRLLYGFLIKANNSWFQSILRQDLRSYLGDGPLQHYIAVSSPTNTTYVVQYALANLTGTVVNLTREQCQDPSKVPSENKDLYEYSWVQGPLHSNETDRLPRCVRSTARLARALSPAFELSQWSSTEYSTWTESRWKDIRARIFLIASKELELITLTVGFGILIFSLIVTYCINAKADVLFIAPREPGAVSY
T1 sequence (Q96BI3 whole entry, other chains not shown): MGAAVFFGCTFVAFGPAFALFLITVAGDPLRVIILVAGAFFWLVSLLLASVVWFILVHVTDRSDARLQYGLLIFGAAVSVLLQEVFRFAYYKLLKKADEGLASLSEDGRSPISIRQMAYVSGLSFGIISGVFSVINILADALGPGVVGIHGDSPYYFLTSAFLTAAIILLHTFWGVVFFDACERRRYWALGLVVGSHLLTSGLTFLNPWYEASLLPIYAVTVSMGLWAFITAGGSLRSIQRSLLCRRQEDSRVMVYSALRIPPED
T1 sequence (Q9NZ42 whole entry, other chains not shown): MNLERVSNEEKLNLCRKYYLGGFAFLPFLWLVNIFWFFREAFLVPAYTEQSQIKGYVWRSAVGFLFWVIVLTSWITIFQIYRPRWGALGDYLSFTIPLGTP
Protocol: The γ-secretase-dependent proteolysis assays with both substrates (C100-FLAG and HexaHis Notch 1 JM/TM) were performed in a weak zwitterionic detergent (CHAPSO, 3-[(3- cholamidopropyl)dimethylammonio]-2-hydroxy-1-propanesulfonate) solubilized conditions ([79], [80]). C100 is C99 with an added N-terminal Met residue. Stock solution of purified γ-secretase ([81], [82]) was diluted to 30 nM in standard assay buffer containing 50 mM HEPES (pH 7.0), 150 mM NaCl, 0.1% DOPC (phosphatidylcholine), 0.025% DOPE (phosphatidylethanolamine), and 0.25% CHAPSO) and incubated at 37 °C for 30 min, whereupon stock solution of verteporfin or inhibitor (LY411,575) was added to achieve the desired concentration with 1% final DMSO concentration. Proteolytic reactions were initiated by adding purified substrates (either C100-FLAG(79) or HexaHis-Notch 1 JM/TM(77)) and incubating at 37 °C (16 h for C100Flag and 4 h for HexaHis-Notch 1 JM/TM). Reactions were quenched with SDS, and the cleaved intracellular domain products (AICD-FLAG released from C100-FLAG or truncated intracellular domain (NICD) released from the proteolysis of Hexa-His Notch 1 JM/TM) were visualized by Western blot using specific primary antibodies, anti-FLAG antibody for FLAG-tagged AICD, and neoepitope-specific anti-V1744 antibody for NICD ([80], [83], [84]).

[2] = system: T2, C99 L723A; test: TROSY NMR titration of C99 L723A mutant by verteporfin; format: binding, human; details: LMPG micelles, up to 300 µM verteporfin, n=1
T2 construct: the transmembrane 99 residue C-terminal (C99) domain; hexa-His; made in house
Protocol: (§1) A Bruker Avance III 600 MHz NMR spectrometer equipped with a cryoprobe (CPTCI) and automated sample changer (SampleJet) was used to collect NMR spectra. Sample details are described above. For high-throughput screening data collection, the ^15N-^1H BEST-TROSY (b_trosy3gpph.2) experiment with 64 scans for each of 96 increments and a relaxation delay of 200 ms was run at 318 K for a total data acquisition time of 35 min per sample. To achieve enhanced signal-to-noise ratio, follow-up titrations and control experiments were conducted using the BEST-TROSY pulse program with 200 scans per 96 increments at 318 K, for a total data acquisition time of 110 min per sample. Data were processed using Bruker Topspin 3.6 using a Gaussian window function with a line broadening of -10 and a Gaussian max of 0.1 in both dimensions. NMR data were then further processed and analyzed using NMR-FAM SPARKY, plotted using GraphPad Prism 9, and prepared for publication figures using Affinity Designer.

[3] = system: T3, C99 T761A; test: TROSY NMR titration of C99 T761A mutant by verteporfin; format: binding, human; details: LMPG micelles, up to 300 µM verteporfin, n=1
T3 construct: the transmembrane 99 residue C-terminal (C99) domain; hexa-His; made in house
Protocol: as §1

[4] = system: T4, C99; test: 2D 1H,1H-NOESY of 1:1 verteporfin:C99 mixture; format: binding, human; details: 300 μM C99 and 300 μM verteporfin, 2.5% d27-LMPG
T4 construct: the transmembrane 99 residue C-terminal (C99) domain; His tag (either the C-terminal hexa-His that is kept, or the N-terminal His of C99-NT2 removed by thrombin); made in house; host or cells: E. coli BL21DE3
Protocol: A sample was prepared containing 300 μM C99 and 300 μM Verteporfin in 2.5% d^27-LMPG (deuterated alkyl chains), 50 mM d^4-Imidazole (deuterated imidazole), 100 mM NaCl, 0.5 mM EDTA, 1 mM DSS, pH 6.5 in 85% D2O. The ^1H-^1H NOESY experiment was recorded on the 800 MHz spectrometer with a mixing time of 120 ms, relaxation delay of 2 s, 4k × 1k data acquisition matrix, using the standard Bruker pulse program (noesyphpr).

[5] = system: T5, C99; test: Glutaraldehyde cross-linking of verteporfin–C99 mixtures; set-up: species or system human; details: LMPG micelles, versus DMSO control, n=3
T5 construct: the transmembrane 99 residue C-terminal (C99) domain; made in house; host or cells: E. coli BL21DE3, pET21b
Protocol: C-terminally His-tagged C99 was expressed from E. coli as mentioned above, and the sample was eluted into a buffer containing 0.1% w/v LMPG, 350 mM Imidazole, 100 mM NaCl, pH 7.8. The protein sample was buffer swapped into GA X-linking buffer containing 0.25% w/v LMPG, 250 mM imidazole, 100 mM NaCl, pH 7.8, and the protein was concentrated to a stock of 300 μM C99. Protein stocks were either used right away or flash frozen in LN2 and stored at −80 °C until further use.
On the day of the experiment, fresh glutaraldehyde (from 25% w/v ampoule) was used to prepare serial dilutions and stored on ice. Reaction volumes were set at 50 μl, containing 30 μM C99, 25 mM Imidazole, 100 mM NaCl, pH 7.8, and 2.5% w/v LMPG. For a typical GA reaction setup, the following components were added to Eppendorf tubes in this specific order: 5 μl of 300 μM C99 was added to the bottom of the tube, followed by 6 μl of 20% w/w LMPG solution, then the sample was diluted to 50 μl using 39 μl of GA X-linking buffer. The sample was mixed by vortex and allowed to sit for at least 30 min. After incubation, 1 μl of Verteporfin stock (typically 10 mM in DMSO) was added to the mixture, vortexed, and allowed to incubate for at least another 30 min in the dark. […] Then, SDS loading buffer was added directly to the reaction tubes, and the samples were visualized using SDS-PAGE and analyzed by densitometry using ImageJ. […]

[6] = 1D 1H NMR titration of empty LMPG micelles by verteporfin; details: empty 2.5% LMPG micelles, acyl chain methylene peak shifts, n = 1; read-out: KD, one verteporfin binding to one detergent micelle model
Description: For this equation, Y is the total binding, Bmax is the maximum binding in the same units as Y, X is the added ligand in molar units, KD is the equilibrium dissociation constant in the same units as X. 1D NMR-binding curves were generated by directly inputting 1D chemical shift perturbations directly into the proper version of Equation 2. Peak height data, such as that quantified in Figures 4 and S4, were first generated using the peak-picking function in NMRFAM Sparky, and peak heights as a function of ligand concentration were used to generate a KD by addition into Equation 2.

reduction of Notch-1 cleavage at saturating verteporfin ([1]; 30 nM γ-secretase): approximately 75% | IC50 ([1]; 30 nM γ-secretase, Notch-1 TM/JM, 4 h, 37 °C, n = 3, estimated, at concentrations above 200 μM, read-out: IC50, inhibition of NICD production): 240 ± 66 µM | inhibition of Notch-1 cleavage ([1]; verteporfin at 164 μM (IC50 for C99 cleavage)): no inhibition | Kd [6]: 53 ± 21 µM
Substance: verteporfin
effect on Notch-1 cleavage at low concentrations ([1]; verteporfin below ca. 200 μM, relative to 0 verteporfin): first activated; also recorded: enhanced; also recorded: stimulate | binding to C99 L723A [2]: nearly complete lack of binding; also recorded: binding was disrupted | binding to C99 T761A [3]: complete lack of binding; also recorded: binding was disrupted | direct intermolecular contact with C99 (NOESY cross-peaks) [4]: confirms direct binding | change in C99 oligomeric state (cross-linking) [5]: no change in oligomeric state; also recorded: no increase in higher-order C99 species
